Source: US20060009478A1, “Methods for the treatment of back pain” (priority 2003, published 2006)

Tests used:
[1] = system: patients with moderate to severe chronic low back pain; assay: Quality of analgesia, low back pain study; format: in vivo, human; details: LOCF, ITT
Method: Quality of analgesia was assessed at clinic visits during the titration and fixed-dose periods. The patient was prompted with the question, “How would you rate the quality of your pain relief at this time?” and responses were selected from poor, fair, good, very good, and excellent.
Global assessment and quality of analgesia ratings were summarized descriptively by treatment group for both the titration and fixed-dose periods. Treatments were compared at each visit in the fixed-dose period, globally and in pairwise fashion, using the Cochran-Mantel-Haenszel row mean scores (CMH-RMS) test, using equally spaced scores.

[2] = system: patients with moderate to severe chronic low back pain; assay: Dose analysis (average titration dose, fixed dose, study drug dose of opioid agonist), low back pain study
From the text: Dose and adverse events were to be evaluated at each visit. The dose was to be increased to the next dose level if the average daily bedtime PI during the last 3 days of each preceding week was >2 and no unacceptable adverse events were reported. The dose was to be fixed, if the average daily bedtime PI during the last 3 days of each preceding week was ≦2 with no unacceptable adverse events, and the patient was to enter the 12-week fixed-dose period of the study. For these patients, the last week of the titration period was to serve as the first week of the fixed dose period. Therefore, only an additional 11 weeks of treatment were carried out. The same procedure was to occur if a patient had reached 80 mg at Week 6 of the titration period with no unacceptable adverse events.
During the titration period (Weeks 2-6, Day 1), patients returned to the study center at weekly intervals (±1 day) for up to six weeks for the following assessments: (1) opioid toxicity assessment; (2) review take-home diary (including overall daily bedtime PI and opioid-related adverse events); (3) record new/changed adverse events and concomitant medications; (4) collect study medication from previous week and account for used/unused supplies; (5) vital signs; (6) quality of analgesia; (7) global assessment of study medication; (8) dispense take-home daily diary; and (8) dispense study medication (one blister card). Dose and adverse events were evaluated at each visit. The dose was to be increased to the next dose level if the average daily bedtime PI during the last 3 days of each preceding week was >2 and no unacceptable adverse events were reported. The dose was to be fixed, if the average daily bedtime PI during the last 3 days of each preceding week was ≦2 with no unacceptable adverse events, and the patient entered the fixed-dose period of the study. For these patients, the last week of the titration period served as the first week of the fixed dose period. Therefore, only an additional 11 weeks of treatment were required. The same procedure occurred if a patient had reached 80 mg at Week 6 of the titration period with no unacceptable adverse events. If any unacceptable study drug related adverse events were encountered, the dose was to be reduced by one level. No more than one dose reduction can occur. The patient was to remain at this reduced dose for a total of 12 weeks. For patients experiencing unacceptable adverse events or intolerable pain in between scheduled clinic visits, the dose level was to be decreased or increased during the treatment week with the Sponsor's approval.

[3] = mg of opioid agonist, ITT population

COc1ccc2c3c1O[C@H]1C(=O)CC[C@@]4(O)[C@@H](C2)N(C)CC[C@]314 [OXY QID, oxycodone]
Quality of analgesia EXCELLENT (4), number of patients ([1]; fixed dose period week 1): 25 | Quality of analgesia EXCELLENT (4), percent of patients ([1]; fixed dose period week 1): 12.1% | Quality of analgesia FAIR (1), number of patients ([1]; fixed dose period week 1): 26 | Quality of analgesia FAIR (1), percent of patients ([1]; fixed dose period week 1): 12.6% | Quality of analgesia GOOD (2), number of patients ([1]; fixed dose period week 1): 69 | Quality of analgesia GOOD (2), percent of patients ([1]; fixed dose period week 1): 33.5% | Quality of analgesia POOR (0), number of patients ([1]; fixed dose period week 1): 33 | Quality of analgesia POOR (0), percent of patients ([1]; fixed dose period week 1): 16.0% | Quality of analgesia VERY GOOD (3), number of patients ([1]; fixed dose period week 1): 52 | Quality of analgesia VERY GOOD (3), percent of patients ([1]; fixed dose period week 1): 25.2% | Quality of analgesia EXCELLENT (4), number of patients ([1]; fixed dose period week 2): 24 | Quality of analgesia EXCELLENT (4), percent of patients ([1]; fixed dose period week 2): 11.7% | Quality of analgesia FAIR (1), number of patients ([1]; fixed dose period week 2): 27 | Quality of analgesia FAIR (1), percent of patients ([1]; fixed dose period week 2): 13.1% | Quality of analgesia GOOD (2), number of patients ([1]; fixed dose period week 2): 70 | Quality of analgesia GOOD (2), percent of patients ([1]; fixed dose period week 2): 34.0% | Quality of analgesia POOR (0), number of patients ([1]; fixed dose period week 2): 32 | Quality of analgesia POOR (0), percent of patients ([1]; fixed dose period week 2): 15.5% | Quality of analgesia VERY GOOD (3), number of patients ([1]; fixed dose period week 2): 52 | Quality of analgesia VERY GOOD (3), percent of patients ([1]; fixed dose period week 2): 25.2% | Quality of analgesia EXCELLENT (4), number of patients ([1]; fixed dose period week 4): 20 | Quality of analgesia EXCELLENT (4), percent of patients ([1]; fixed dose period week 4): 9.7% | Quality of analgesia FAIR (1), number of patients ([1]; fixed dose period week 4): 28 | Quality of analgesia FAIR (1), percent of patients ([1]; fixed dose period week 4): 13.6% | Quality of analgesia GOOD (2), number of patients ([1]; fixed dose period week 4): 63 | Quality of analgesia GOOD (2), percent of patients ([1]; fixed dose period week 4): 30.6% | Quality of analgesia POOR (0), number of patients ([1]; fixed dose period week 4): 35 | Quality of analgesia POOR (0), percent of patients ([1]; fixed dose period week 4): 17.0% | Quality of analgesia VERY GOOD (3), number of patients ([1]; fixed dose period week 4): 59 | Quality of analgesia VERY GOOD (3), percent of patients ([1]; fixed dose period week 4): 28.6% | Quality of analgesia EXCELLENT (4), number of patients ([1]; fixed dose period week 6): 24 | Quality of analgesia EXCELLENT (4), percent of patients ([1]; fixed dose period week 6): 11.7% | Quality of analgesia FAIR (1), number of patients ([1]; fixed dose period week 6): 34 | Quality of analgesia FAIR (1), percent of patients ([1]; fixed dose period week 6): 16.5% | Quality of analgesia GOOD (2), number of patients ([1]; fixed dose period week 6): 67 | Quality of analgesia GOOD (2), percent of patients ([1]; fixed dose period week 6): 32.5% | Quality of analgesia POOR (0), number of patients ([1]; fixed dose period week 6): 36 | Quality of analgesia POOR (0), percent of patients ([1]; fixed dose period week 6): 17.5% | Quality of analgesia VERY GOOD (3), number of patients ([1]; fixed dose period week 6): 44 | Quality of analgesia VERY GOOD (3), percent of patients ([1]; fixed dose period week 6): 21.4% | Quality of analgesia EXCELLENT (4), number of patients ([1]; fixed dose period week 8): 24 | Quality of analgesia EXCELLENT (4), percent of patients ([1]; fixed dose period week 8): 11.7% | Quality of analgesia FAIR (1), number of patients ([1]; fixed dose period week 8): 35 | Quality of analgesia FAIR (1), percent of patients ([1]; fixed dose period week 8): 17.0% | Quality of analgesia GOOD (2), number of patients ([1]; fixed dose period week 8): 72 | Quality of analgesia GOOD (2), percent of patients ([1]; fixed dose period week 8): 35.0% | Quality of analgesia POOR (0), number of patients ([1]; fixed dose period week 8): 33 | Quality of analgesia POOR (0), percent of patients ([1]; fixed dose period week 8): 16.0% | Quality of analgesia VERY GOOD (3), number of patients ([1]; fixed dose period week 8): 41 | Quality of analgesia VERY GOOD (3), percent of patients ([1]; fixed dose period week 8): 19.9% | Quality of analgesia EXCELLENT (4), number of patients ([1]; fixed dose period week 10): 24 | Quality of analgesia EXCELLENT (4), percent of patients ([1]; fixed dose period week 10): 11.7% | Quality of analgesia FAIR (1), number of patients ([1]; fixed dose period week 10): 35 | Quality of analgesia FAIR (1), percent of patients ([1]; fixed dose period week 10): 17.0% | Quality of analgesia GOOD (2), number of patients ([1]; fixed dose period week 10): 66 | Quality of analgesia GOOD (2), percent of patients ([1]; fixed dose period week 10): 32.0% | Quality of analgesia POOR (0), number of patients ([1]; fixed dose period week 10): 35 | Quality of analgesia POOR (0), percent of patients ([1]; fixed dose period week 10): 17.0% | Quality of analgesia VERY GOOD (3), number of patients ([1]; fixed dose period week 10): 45 | Quality of analgesia VERY GOOD (3), percent of patients ([1]; fixed dose period week 10): 21.8% | Quality of analgesia EXCELLENT (4), number of patients ([1]; fixed dose period week 12): 21 | Quality of analgesia EXCELLENT (4), percent of patients ([1]; fixed dose period week 12): 10.2% | Quality of analgesia FAIR (1), number of patients ([1]; fixed dose period week 12): 40 | Quality of analgesia FAIR (1), percent of patients ([1]; fixed dose period week 12): 19.4% | Quality of analgesia GOOD (2), number of patients ([1]; fixed dose period week 12): 64 | Quality of analgesia GOOD (2), percent of patients ([1]; fixed dose period week 12): 31.1% | Quality of analgesia POOR (0), number of patients ([1]; fixed dose period week 12): 37 | Quality of analgesia POOR (0), percent of patients ([1]; fixed dose period week 12): 18.0% | Quality of analgesia VERY GOOD (3), number of patients ([1]; fixed dose period week 12): 43 | Quality of analgesia VERY GOOD (3), percent of patients ([1]; fixed dose period week 12): 20.9% | Mean study drug dose of oxycodone ([2]; entire study period (titration and fixed-dose), ITT): 39.0 mg | Mean fixed dose of oxycodone ([2]; fixed-dose period, ITT): 57.2 mg | AVERAGE FIXED DOSE, MAXIMUM [2, 3]: 80.0 mg | AVERAGE FIXED DOSE, MEAN (SD) [2, 3]: 57.2 (23.35) MG | AVERAGE FIXED DOSE, MEDIAN [2, 3]: 60.0 mg | AVERAGE FIXED DOSE, MINIMUM [2, 3]: 10.0 mg | AVERAGE STUDY DRUG DOSE, MAXIMUM [2, 3]: 67.8 mg | AVERAGE STUDY DRUG DOSE, MEAN (SD) [2, 3]: 39.0 (19.87) MG | AVERAGE STUDY DRUG DOSE, MEDIAN [2, 3]: 35.6 mg | AVERAGE STUDY DRUG DOSE, MINIMUM [2, 3]: 10.0 mg | AVERAGE TITRATION DOSE, MAXIMUM [2, 3]: 42.3 mg | AVERAGE TITRATION DOSE, MEAN (SD) [2, 3]: 24.2 (8.22) MG | AVERAGE TITRATION DOSE, MEDIAN [2, 3]: 25.9 mg | AVERAGE TITRATION DOSE, MINIMUM [2, 3]: 0.0 mg | Opioid drug dose required to achieve comparable pain relief ([2]; per day, p<0.05): approximately 39 mg | Mean titration dose of oxycodone ([2]; titration period, ITT): 24.2 mg
